Data: patent US20170049676A1, “TOPICAL COMPOSITION” (Conopco, Inc., d/b/a UNILEVER, priority 2014, published 2017)
Where two headings read alike, the source gives them in different places.

Key:
[1] = test system: primary human neonatal dermal fibroblast cells
heme oxygenase 1 (HO-1) [2] = experiment: Heme oxygenase 1 (HO-1) ELISA on lysates of adult fibroblasts treated with isothiocyanates (Example 2); assay type: cell-based; conditions: primary human adult dermal fibroblast cells; for HO-1 (pg HO-1 per μg protein): 24 hours, vehicle control 179 ± 28; for production of HO-1 (in words): either at 1 or 2 μM
Procedure: Primary human adult dermal fibroblast cells were routinely cultured and passaged in Dulbecco's Modified Eagle Medium (DMEM) supplemented with 10% foetal bovine serum (FBS), known as complete medium. Cells were plated out in 12-well tissue culture plates at a seeding density of 20,000 cells per well in 1 ml of low serum medium (DMEM supplemented with 1% FBS) and incubated at 37° C. in 5% CO2 for 96-120 hours before addition of the test samples.
The isothiocynates (all from Sigma-Aldrich Company) sulforaphane, allyl isothiocyanate (AITC), alpha-naphthyl isothiocyanate (NITC), phenethyl isothiocyanate (PEITC) and benzyl isothiocyanate (BITC) were prepared in dimethyl sulphoxide (DMSO) and diluted in DMEM supplemented with 1% FBS to a final concentration of 1 uM and 2 uM. Dermal fibroblasts were treated with 1 ml/well of the test samples for a period of 24 hours. A solvent vehicle was included in each experimental plate.
After 24 hours the cell monolayer was washed with 1 ml of Dulbecco's Phosphate Buffered Saline (DPBS) per well and lysed with 400 μl of RIPA cell lysis buffer per well. The RIPA cell lysis buffer consisted of 150 mM NaCl, 1% v/v Nonidet-P40 (Igepal CA603 from Fluke 56741), 0.1% w/v sodium dodecyl sulphate (SDS) and 0.1% w/v sodium deoxycholate in 50 mM Tris-HCL buffer at pH 7.6. Protease inhibitor tablets were added to the lysis buffer immediately prior to use, at the manufacturer's recommended level. The plates received one freeze thaw cycle to ensure complete cell lysis. The lysates were subsequently clarified by scraping the samples off the plates with a pipette tip, centrifuging at 13,000 rpm for 10 minutes and transferring the supernatant into a 96 well microtitre plate. The clarified lysates were stored at −20° C. until needed.
The heme oxygenase 1 (HO-1) protein concentration of each cell lysate was assayed using the Human HO-1 ELISA Kit from Assay Designs (ADI-EKS-800, Enzo Life Sciences, UK) according to the manufacturer's instructions. Briefly, […] were diluted 1 in 10 in sample diluent, and 100 μl transferred to the pre-coated anti-HO-1 immunoassay plate. A 7-point recombinant HO-1 standard curve, ranging from 25 to 0.39 ng/ml, was also prepared in sample diluent. The immunoassay plate was incubated at room temperature for 30 minutes, washed six times with Wash Buffer, and incubated for a further 60 minutes at room temperature with 100 μl/well of anti-HO-1 antibody solution. The plate was washed as above and incubated for 30 minutes at room temperature with 100 μl/well of horseradish peroxidase (HRP)-conjugate solution. Again the plate was washed as above and 100 μl/well of 3,3′,5,5′-tetramethylbenzidine (TMB)-substrate added to each well for 15 minutes at room temperature in the dark. Following the addition of 100 μl/l well of stop solution, the absorbance was read at 450 nm on a microplate reader (Dynex MRX) and the unknown lysate levels of HO-1 were extrapolated from the standard curve. […]

heme oxygenase 1 (HO-1) [3] = experiment: Heme oxygenase 1 (HO-1) ELISA on lysates of fibroblasts treated 24 hours, normalised to total protein (Example 1); assay type: cell-based, human; conditions: 8.4 mM controls
Procedure: Primary human neonatal dermal fibroblast cells were cultured and passaged in Dulbecco's Modified Eagle Medium (DMEM) supplemented with 10% foetal bovine serum (FBS), known as complete medium. Cells were routinely plated out in 24-well tissue culture plates at a seeding density of 40,000 cells per well in 1 ml complete medium, and incubated at 37° C. in 5% CO2 for 48 hours before addition of the test solutions.
After removal and storage of the tissue culture supernatant, the cell monolayer was washed with 1 ml of Dulbecco's Phosphate Buffered Saline (DPBS) per well and lysed with 200 μl cell lysis buffer per well. The cell lysis buffer consisted of 0.5% w/w Triton™ X100 (octyl phenol ethoxylate) and 1 mM ethylenediaminetetraacetic acid (EDTA) in phosphate buffer solution (PBS) at pH 7.2. Protease inhibitor tablets were added to the lysis buffer immediately prior to use, at the manufacturer's recommended level. The plates received one freeze thaw cycle to ensure complete cell lysis. The lysates were subsequently clarified by scraping the samples off the plates with a pipette tip and passing them through an Acrowell™ filter plate (Pall Corporation) using an Acroprep™ vacuum manifold (Pall Corporation) into a 96 well microwell plate. The clarified lysates were stored at −20° C. until needed.
A set of eight standard solutions ranging from 0 to 800 μg/ml protein was prepared from the supplied 2 mg/ml bovine serum albumin (BSA) stock solution. 10 μl of standard or cell lysate was added to duplicate wells of a flat-bottomed, 96-well microtitre plate. The reagent solution was prepared according to the kit instructions from 50 parts reagent A and 1 part reagent B. 200 μl of the final reagent was added to each well of the microtitre plate. The plate was mixed, covered and incubated at 37° C. for 30 minutes and absorbance read at 540 nm. A protein standard curve was constructed and used to determine the protein concentration of each individual cell lysate.
The heme oxygenase 1 (HO-1) protein concentration of each cell lysate was assayed using the Human Total HO-1/HMOX1 DuoSet IC assay (R&D Systems Europe Ltd) according to the manufacturer's instructions. This DuoSet IC ELISA ([…]) contains the basic components required for the development of sandwich ELISAs to measure HO-1/HMOX1 (heme oxygenase (decycling) 1 which is a human gene that encodes for the enzyme heme oxygenase 1)/HSP32 (heat shock protein 32 (Hsp32), also known as heme oxygenase 1 (HO-1)) in cell lysates. An immobilized capture antibody specific for HO-1/HMOX1/HSP32 binds both phosphorylated and unphosphorylated HO-1/HMOX1/HSP32. […]

[4] = test system: myrosinase from Raphanus sativus var. longipinnatus (daikon); conditions: cited from earlier work; for reaction velocity, % of that with 500 μM ascorbic acid: 150 μM sinigrin; for effect on enzymic activity (in words): sinigrin as substrate, pH 6.0
[5] = test system: rat basophilic leukemia (RBL-2H3) cells; conditions: cited from earlier work
[6] = test system: primary human neonatal dermal fibroblast cells; experiment: Cytotoxicity assay, ApoTox-Glo Triplex Assay (dead-cell protease, bis-AAF-R110)
[7] = test system: enzyme from Salix alba (white willow); conditions: cited from earlier work
[8] = test system: enzymes from several other Brassica species; conditions: cited from earlier work
[9] = test system: myrosinase in partially purified extracts of six crucifers; conditions: cited from earlier work

Structure (SMILES): C=CCN=C=S [Allyl isocyanate control, Allyl isothiocyanate]
- cytotoxicity to the fibroblast cells (in words) [1]: Neither myrosinase, nor the glucosinolate sinigrin, nor allyl isothiocyanate induce cytotoxicity on their own
- Cytotoxicity (RFU × 1000) ([1]; human, 24 h, 0.168 mM): 66.71 ± 4.63 RFU × 1000
- HO-1 (pg HO-1 per μg protein) (heme oxygenase 1 (HO-1) [2]; 1 μM): 207 ± 13 pg HO-1 per μg protein
- HO-1 (pg HO-1 per μg protein) (heme oxygenase 1 (HO-1) [2]; 2 μM): 243 ± 26 pg HO-1 per μg protein
- production of HO-1 (in words) (heme oxygenase 1 (HO-1) [2]): increase the production of HO-1
- Normalised HO-1 (vehicle = 100) (heme oxygenase 1 (HO-1) [3]; dilution 1/50): 335.46 ± 54.80
- Normalised HO-1 (vehicle = 100) (heme oxygenase 1 (HO-1) [3]; dilution 1/100): 383.74 ± 30.02
- inhibition of activity (in words) ([4]; concentrations as high as 1 mM): did not significantly inhibit activity

Structure (SMILES): S=C=Nc1cccc2ccccc12 [Alpha-naphthyl isothiocyanate (NITC), Alpha-naphthyl isothiocyanate]
- HO-1 (pg HO-1 per μg protein) (heme oxygenase 1 (HO-1) [2]; 1 μM): 195 ± 25 pg HO-1 per μg protein
- HO-1 (pg HO-1 per μg protein) (heme oxygenase 1 (HO-1) [2]; 2 μM): 191 ± 31 pg HO-1 per μg protein
- production of HO-1 (in words) (heme oxygenase 1 (HO-1) [2]): increase the production of HO-1

Structure (SMILES): S=C=NCc1ccccc1 [Benzyl isothiocyanate (BITC), Benzyl isothiocyanate]
- HO-1 (pg HO-1 per μg protein) (heme oxygenase 1 (HO-1) [2]; 1 μM): 381 ± 50 pg HO-1 per μg protein
- HO-1 (pg HO-1 per μg protein) (heme oxygenase 1 (HO-1) [2]; 2 μM): 730 ± 170 pg HO-1 per μg protein
- production of HO-1 (in words) (heme oxygenase 1 (HO-1) [2]): increase the production of HO-1

Structure (SMILES): S=C=NCCc1ccccc1 [Phenethyl isothiocyanate (PEITC), Phenethyl isothiocyanate]
- HO-1 (pg HO-1 per μg protein) (heme oxygenase 1 (HO-1) [2]; 1 μM): 429 ± 49 pg HO-1 per μg protein
- HO-1 (pg HO-1 per μg protein) (heme oxygenase 1 (HO-1) [2]; 2 μM): 668 ± 101 pg HO-1 per μg protein
- production of HO-1 (in words) (heme oxygenase 1 (HO-1) [2]): increase the production of HO-1

Structure (SMILES): O=c1c(O)c(-c2ccc(O)c(O)c2)oc2cc(O)cc(O)c12 [Quercetin]
- Nrf2 translocation (in words) ([5]; RBL-2H3 cells): translocate Nrf2 from cytoplasm into nucleus
- mast cell degranulation and release of histamine (in words) [5]: inhibit mast cell degranulation and subsequent release of histamine

Structure (SMILES): C=CCC(=NOS(=O)(=O)O)S[C@@H]1O[C@H](CO)[C@@H](O)[C@H](O)[C@H]1O [Sinigrin control, sinigrin (2-propenyl or allyl glucosinolate)]
- Cytotoxicity (RFU × 1000) ([6]; 8.4 mM controls in complete medium, dilution 1/50, second series (untreated cells 18.63)): 80.94 ± 39.75 RFU × 1000
- cytotoxicity to the fibroblast cells (in words) ([6]; extract without heat treatment, single components on their own at comparable levels): Neither myrosinase, nor the glucosinolate sinigrin, nor allyl isothiocyanate induce cytotoxicity on their own
- Normalised HO-1 (vehicle = 100) (heme oxygenase 1 (HO-1) [3]; dilution 1/50): 168.32 ± 73.93
- Normalised HO-1 (vehicle = 100) (heme oxygenase 1 (HO-1) [3]; dilution 1/100): 49.08 ± 12.98

Structure (SMILES): C[S+]([O-])CCCCN=C=S (stereo not drawn) [Sulforaphane]
- HO-1 (pg HO-1 per μg protein) (heme oxygenase 1 (HO-1) [2]; 1 μM): 280 ± 15 pg HO-1 per μg protein
- HO-1 (pg HO-1 per μg protein) (heme oxygenase 1 (HO-1) [2]; 2 μM): 309 ± 45 pg HO-1 per μg protein
- production of HO-1 (in words) (heme oxygenase 1 (HO-1) [2]): increase the production of HO-1

Structure (SMILES): O=C1O[C@H]([C@@H](O)CO)C(O)=C1O [ascorbic acid]
- activation by ascorbate [7]: 2-3 fold
- activation by ascorbate [8]: 8-12 fold
- ascorbate concentrations for maximal activation of myrosinase [9]: 0.7 to 5.0 mM
- reaction velocity, % of that with 500 μM ascorbic acid ([4]; 0.75 mM ascorbic acid): 90%
- reaction velocity, % of that with 500 μM ascorbic acid ([4]; 1.0 mM ascorbic acid): 73%
- effect on enzymic activity (in words) [4]: enzymic activity was enhanced greatly

Structure (SMILES): O=S(=O)(O)O [sulphate]
- effect on enzymic activity (in words) [4]: inhibited activity competitively
